Experimental findings from ChEMBL document CHEMBL1201862, “PubChem BioAssay data set” (2004) are described below.

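Briefly, cells in 96-well plates were exposed to five compound concentrations for 48 h, and endpoints were estimated by linear interpolation. GI50 = concentration required for 50% inhibition of growth.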 Activity calls are given as the source filed them. Rule as the data show it: active = GI50 up to about 1.1 µM and inactive = higher.

Test systems include CCRF-CEM; HOP-92; NCI-H522; OVCAR-5; A498; COLO 205; K562; OVCAR-3; M14; SF-295; SN12C; RXF 393; EKVX; UACC-257; M19-MEL; OVCAR-8; ACHN; HCT-15; UO-31; BT-549.
Test in all cases: inhibition of tumour cell growth, NCI panel, 48 h

For the compound `O=C(O)C12C3CCCC1C2CC3` (configuration not stated), the GI50 in the experiment with CCRF-CEM, in the experiment on HOP-92, in the experiment with NCI-H522, with OVCAR-5, with A498 and in the experiment with COLO 205 was > 100 µM (inactive) throughout. For the same compound, the GI50 with K562, in the experiment on OVCAR-3, in the experiment on M14, in the experiment on SF-295, in the experiment on SN12C and with RXF 393 was > 100 µM (inactive) throughout. Further, the GI50 in the experiment with EKVX was > 100 µM (inactive); in the experiment with UACC-257, > 100 µM (inactive); in the experiment with M19-MEL, > 100 µM (inactive); in the experiment on OVCAR-8 it was > 100 µM (inactive); in the experiment on ACHN it was > 100 µM (inactive); in the experiment with HCT-15, > 100 µM. The GI50 with UO-31 was > 100 µM (inactive).

Take `CS(=O)(=O)Sc1ccc(Cl)cc1`: the GI50 in the experiment with CCRF-CEM is 2.54 µM (inactive); with HOP-92, 7.11 µM (inactive); in the experiment with NCI-H522, 3.24 µM (inactive); in the experiment on OVCAR-5, 17.6 µM (inactive); with A498 it was 2.38 µM (inactive); in the experiment with COLO 205, 3.52 µM (inactive). For the same compound, the GI50 in the experiment with K562 was 10.2 µM (inactive); in the experiment with OVCAR-3, 5.87 µM (inactive); in the experiment with M14 it was 12.8 µM (inactive); in the experiment on SF-295 it was 3.04 µM (inactive); with SN12C it was 3.69 µM (inactive); with RXF 393 it was 7.89 µM (inactive). The GI50 is 3.82 µM (inactive) in the experiment on EKVX; 8.53 µM (inactive) in the experiment with UACC-257; 6.82 µM (inactive) in the experiment on M19-MEL; 7.87 µM (inactive) in the experiment on OVCAR-8; 10.1 µM in the experiment on HCT-15; 3.29 µM (inactive) with UO-31.

In the case of `O=C1CCC(c2nc3ccccc3o2)C(=O)N1` (configuration not stated), the GI50 with CCRF-CEM, in the experiment with HOP-92, in the experiment with NCI-H522, in the experiment with A498, in the experiment on COLO 205 and in the experiment with K562 was > 100 µM (inactive) each time. The GI50 in the experiment on OVCAR-3, in the experiment with M14, in the experiment with SF-295, in the experiment with SN12C, with RXF 393 and in the experiment with EKVX was > 100 µM (inactive) throughout. For the same compound, the GI50 in the experiment on UACC-257 is > 100 µM (inactive); in the experiment on M19-MEL it was > 100 µM (inactive); in the experiment with OVCAR-8 it was > 100 µM (inactive); with ACHN it was > 100 µM (inactive); with HCT-15, > 100 µM; with UO-31, > 100 µM (inactive).

For `Cc1ccc(NC(=O)C(=O)CC(=O)c2c(C)[n+]([O-])c3ccccc3[n+]2[O-])cc1`, the GI50 is 20.1 µM (inactive) in the experiment on CCRF-CEM; 21.9 µM (inactive) in the experiment with HOP-92; 20.9 µM (inactive) in the experiment with NCI-H522; 40.6 µM (inactive) in the experiment with OVCAR-5; > 100 µM (inactive) with A498; 23.9 µM (inactive) in the experiment on COLO 205. Moreover, the GI50 was 21.5 µM (inactive) in the experiment on K562; 12 µM (inactive) in the experiment on OVCAR-3; 23.9 µM (inactive) with M14; 51.1 µM (inactive) in the experiment on SF-295; 36.5 µM (inactive) with SN12C; 54.8 µM (inactive) with RXF 393. The GI50 in the experiment with EKVX was 16.9 µM (inactive); in the experiment on UACC-257, 24.2 µM (inactive); in the experiment with M19-MEL it was 16.4 µM (inactive); with OVCAR-8, 22.8 µM (inactive); in the experiment on ACHN, 26.2 µM (inactive); in the experiment on HCT-15 it was 31.8 µM. In the experiment on UO-31, the GI50 was > 100 µM (inactive).

On to `CN(C)c1nc(Oc2nc(N(C)C)nc(N(C)C)n2)nc(N(C)C)n1`, for which the GI50 with CCRF-CEM is > 100 µM (inactive); with HOP-92 it was > 100 µM (inactive); with NCI-H522, 70.8 µM (inactive); in the experiment with OVCAR-5, > 100 µM (inactive); in the experiment with A498, > 100 µM (inactive); in the experiment on COLO 205, 22.1 µM (inactive). The GI50 with K562 is 59.2 µM (inactive); with OVCAR-3, 46 µM (inactive); in the experiment with M14 it was > 100 µM (inactive); in the experiment with SF-295, > 100 µM (inactive); with SN12C, > 100 µM (inactive); with RXF 393 it was > 100 µM (inactive). The GI50 is > 100 µM (inactive) with EKVX; 56.5 µM (inactive) in the experiment on UACC-257; 82.4 µM (inactive) in the experiment on M19-MEL; 93.8 µM (inactive) in the experiment on OVCAR-8; > 100 µM (inactive) with ACHN; > 100 µM in the experiment on HCT-15. Further, the GI50 in the experiment on UO-31 was > 100 µM (inactive).

Consider `Clc1ccc(/N=N/c2nc3ccccc3nc2/N=N/c2ccc(Cl)cc2Cl)c(Cl)c1`, for which the GI50 is 44 µM (inactive) in the experiment with HOP-92; 60.1 µM (inactive) in the experiment on NCI-H522; > 100 µM (inactive) in the experiment on A498; > 100 µM (inactive) in the experiment on COLO 205; 44.6 µM (inactive) in the experiment on K562; 70 µM (inactive) in the experiment with OVCAR-3. For the same compound, the GI50 in the experiment with SF-295, in the experiment with SN12C, in the experiment with RXF 393, in the experiment on EKVX, in the experiment on UACC-257 and in the experiment with M19-MEL was > 100 µM (inactive) throughout. Moreover, the GI50 in the experiment on OVCAR-8 was > 100 µM (inactive); in the experiment on ACHN, 45.9 µM (inactive); in the experiment with HCT-15 it was > 100 µM; with UO-31, > 100 µM (inactive).

`COCN/C(N)=N/C#N`: the GI50 in the experiment on CCRF-CEM is > 100 µM (inactive); in the experiment with HOP-92, > 100 µM (inactive); in the experiment on NCI-H522, > 100 µM (inactive); with OVCAR-5, > 100 µM (inactive); with A498, > 100 µM (inactive); in the experiment with COLO 205 it was 21.7 µM (inactive). In addition, the GI50 in the experiment with K562, in the experiment on OVCAR-3, in the experiment on M14, with SF-295, in the experiment with SN12C and with RXF 393 was > 100 µM (inactive) in each case. Also, the GI50 in the experiment on EKVX was > 100 µM (inactive); with UACC-257, > 100 µM (inactive); in the experiment with M19-MEL, 41.7 µM (inactive); in the experiment with OVCAR-8, > 100 µM (inactive); in the experiment on ACHN, > 100 µM (inactive); in the experiment on HCT-15, 15.7 µM. Moreover, the GI50 in the experiment on UO-31 is > 100 µM (inactive).

Take `C1=c2ccccc2=C2C(=C(c3ccccc3)C(c3ccccc3)=NN2c2ccccc2)S1`: the GI50 in the experiment with CCRF-CEM, in the experiment with HOP-92, in the experiment with NCI-H522, in the experiment with OVCAR-5, in the experiment on A498 and in the experiment with COLO 205 was > 100 µM (inactive) each time. In addition, the GI50 in the experiment on K562, in the experiment on M14, in the experiment on SF-295, in the experiment with SN12C, in the experiment on RXF 393 and in the experiment with EKVX was > 100 µM (inactive) in each case. The GI50 was > 100 µM (inactive) in the experiment on UACC-257; > 100 µM (inactive) in the experiment with M19-MEL; > 100 µM (inactive) with OVCAR-8; > 100 µM (inactive) in the experiment on ACHN; > 100 µM in the experiment on HCT-15; > 100 µM (inactive) in the experiment with UO-31.

For `NCc1cc(O)c(O)c(O)c1`, the GI50 in the experiment on CCRF-CEM was 38.5 µM (inactive); in the experiment with HOP-92, > 100 µM (inactive); with NCI-H522, > 100 µM (inactive); in the experiment on OVCAR-5 it was > 100 µM (inactive); with A498 it was > 100 µM (inactive); with COLO 205, > 100 µM (inactive). In addition, the GI50 in the experiment with K562 is 43.1 µM (inactive); in the experiment on OVCAR-3, > 100 µM (inactive); in the experiment with M14, > 100 µM (inactive); with SF-295, > 100 µM (inactive); with SN12C, > 100 µM (inactive); with RXF 393 it was > 100 µM (inactive). Moreover, the GI50 with EKVX is > 100 µM (inactive); in the experiment on UACC-257, > 100 µM (inactive); with M19-MEL, 80.4 µM (inactive); in the experiment with OVCAR-8, > 100 µM (inactive); with ACHN it was > 100 µM (inactive); in the experiment on HCT-15 it was > 100 µM. Further, the GI50 in the experiment on UO-31 is > 100 µM (inactive).

`O=C(O)CC(NC(=O)CP(=O)(O)O)C(=O)O` (configuration not stated): the GI50 in the experiment on CCRF-CEM was 682 µM (inactive); in the experiment with HOP-92 it was 424 µM (inactive); with NCI-H522, 1650 µM (inactive); with OVCAR-5 it was 6120 µM (inactive); in the experiment with BT-549 it was 3210 µM (inactive); in the experiment with A498, 2470 µM (inactive). Further, the GI50 in the experiment with COLO 205 was 558 µM (inactive); in the experiment on K562, 94.8 µM (inactive); with OVCAR-3 it was 910 µM (inactive); in the experiment on M14, 383 µM (inactive); with SF-295, 44.9 µM (inactive); in the experiment with SN12C, 724 µM (inactive). For the same compound, the GI50 in the experiment on RXF 393 was 249 µM (inactive); in the experiment with EKVX, 2000 µM (inactive); with M19-MEL it was 97.9 µM (inactive); in the experiment on OVCAR-8, 149 µM (inactive); with ACHN, 711 µM (inactive); with HCT-15 it was 146 µM. Moreover, the GI50 with UO-31 was 690 µM (inactive).

With `CCCCC[C@@H]1CCCC2NC(CCCCCO[Si](c3ccccc3)(c3ccccc3)C(C)(C)C)CCC21` (some centres not stated), the GI50 is 7.82 µM (inactive) with CCRF-CEM; 10.1 µM (inactive) in the experiment on HOP-92; 15 µM (inactive) in the experiment on NCI-H522; 20.1 µM (inactive) in the experiment with OVCAR-5; 17.3 µM (inactive) with A498; 5.25 µM (inactive) in the experiment on K562. The GI50 with OVCAR-3 is 16.6 µM (inactive); in the experiment on M14, 14.1 µM (inactive); with SF-295 it was 16.9 µM (inactive); in the experiment with SN12C, 14.7 µM (inactive); in the experiment with RXF 393, 11.3 µM (inactive); with EKVX it was 17.3 µM (inactive). For the same compound, the GI50 in the experiment on UACC-257 was 15.2 µM (inactive); in the experiment with M19-MEL, 17.3 µM (inactive); in the experiment on OVCAR-8 it was 17.1 µM (inactive); with ACHN it was 13.5 µM (inactive); with HCT-15, 11.7 µM; with UO-31, 13.4 µM (inactive).
